Legend:
TNF-alpha = TNF-alpha Quantification Assay (ELISA), LPS-stimulated RAW 264.7; format: cell-based; conditions: Mus musculus, RAW264.7; at 10 μM; read-out: TNFα: % inh.
[1] = system: Smad2/Smad3 phosphorylation; test: Phospho-Smad2/3 Inhibition Assay (western blot), Panc-1; format: cell-based, human; conditions: at 10 μM, Panc-1 pancreatic cancer cell line; starred symbols = activation
How it was run: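 Western blotting of lysates (15-50 μg protein) read phosphorylation of Smad2 Ser465/467 and Smad3 Ser423/425. Before lysis, Panc-1 cells got 1 h of 10 ng/ml TGF-b1 following 3 h compound exposure at 37° C (10 μM final, or serial dilutions for IC50, 0.3% DMSO) after overnight 0.5% FBS starvation.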

IL6 = test: IL-6 Quantification Assay (ELISA), LPS-stimulated RAW 264.7; format: cell-based; parameters: inhibition: dose or concentration left out as unconfirmed; conditions: Mus musculus, RAW264.7; read-out: IL-6: % inh.
Erk1/2 phosphorylation = test: Erk1/2 Phosphorylation Assay (western blot), Panc-1; format: cell-based, human; conditions: at 10 μM, * = activation
How it was run: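 Phospho-Erk1/2 (Thr202/Tyr204) was detected by western blot in lysates of Panc-1 cells (KRas G12D). These had 6 h, 37° C exposure to 10 μM compound or a dilution series for IC50, in 0.3% DMSO. Cells were either starved overnight in 0.5% FBS with a 15-min 1.5 ng/ml EGF pulse, or kept unstimulated in 10% FBS.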

`Cc1c(-c2ccn(C(C)C)n2)cn2nc(-c3nccn3C)nc(Nc3ccccn3)c12` [Compound 57, 6-(1-Isopropyl-1H-pyrazol-3-yl)-5-methyl-2-(1-methyl-1H-imidazol-2-yl)-N-(pyridin-2-yl)pyrrolo[2,1-f][1,2,4]triazin-4-amine] was tested, and the inhibition at 10 µM (TNF-alpha) was 0%, the “% inh of Smad2/3 phosphorylation in Panc-1” value [1] was “A* (A* = 1-25% activation)” and the inhibition (IL6) was 1 to 24%. The “% inh of Erk1/2 phosphorylation in Panc-1” value (Erk1/2 phosphorylation) was “A* (1-25% activation)”.

`COc1ccnc(Nc2nc(-c3nccn3C)nn3cc(-c4ccn(C(C)C)n4)c(C)c23)c1` [Compound 58, 6-(1-Isopropyl-1H-pyrazol-3-yl)-N-(4-methoxypyridin-2-yl)-5-methyl-2-(1-methyl-1H-imidazol-2-yl)pyrrolo[2,1-f][1,2,4]triazin-4-amine] was tested, and the inhibition at 10 µM (TNF-alpha) was 1 to 24%, the “% inh of Smad2/3 phosphorylation in Panc-1” value [1] was “C (C = 46-75% inhibition)” and the inhibition (IL6) was 25 to 49%. For the same molecule, the “% inh of Erk1/2 phosphorylation in Panc-1” value (Erk1/2 phosphorylation) was “D (85-100% inhibition)”.

In the case of `Cc1c(-c2ccn(C(C)C)n2)cn2nc(-c3nccn3C)nc(Nc3nnco3)c12` [Compound 59, N-(6-(1-Isopropyl-1H-pyrazol-3-yl)-5-methyl-2-(1-methyl-1H-imidazol-2-yl)pyrrolo[2,1-f][1,2,4]triazin-4-yl)-1,3,4-oxadiazol-2-amine], the inhibition at 10 µM (TNF-alpha) was 1 to 24%, the “% inh of Smad2/3 phosphorylation in Panc-1” value [1] was “D (D = 76-100% inhibition)” and the inhibition (IL6) was 25 to 49%. The “% inh of Erk1/2 phosphorylation in Panc-1” value (Erk1/2 phosphorylation) was “C (50-84% inhibition)”.

With `Cc1c(-c2ccn(C(C)C)n2)cn2nc(-c3nccn3C)nc(Nc3ncco3)c12` [Compound 60, N-(6-(1-Isopropyl-1H-pyrazol-3-yl)-5-methyl-2-(1-methyl-1H-imidazol-2-yl)pyrrolo[2,1-f][1,2,4]triazin-4-yl)oxazol-2-amine] the inhibition at 10 µM (TNF-alpha) was 0%, the “% inh of Smad2/3 phosphorylation in Panc-1” value [1] was “C (C = 46-75% inhibition)” and the inhibition (IL6) was 0%. The “% inh of Erk1/2 phosphorylation in Panc-1” value (Erk1/2 phosphorylation) was “A (1-25% inhibition)”.

In the case of `Cc1c(-c2ccn(C(C)C)n2)cn2nc(-c3nccn3C)nc(Nc3ccn(C)n3)c12` [Compound 61, 6-(1-Isopropyl-1H-pyrazol-3-yl)-5-methyl-2-(1-methyl-1H-imidazol-2-yl)-N-(1-methyl-1H-pyrazol-3-yl)pyrrolo[2,1-f][1,2,4]triazin-4-amine], the inhibition at 10 µM (TNF-alpha) was 1 to 24%, the “% inh of Smad2/3 phosphorylation in Panc-1” value [1] was “B (B = 26-45% inhibition)” and the inhibition (IL6) was 1 to 24%. For the same molecule, the “% inh of Erk1/2 phosphorylation in Panc-1” value (Erk1/2 phosphorylation) was “A* (1-25% activation)”.

For `Cc1c(-c2ccn(C(C)C)n2)cn2nc(-c3nccn3C)nc(Nc3cnccn3)c12` [Compound 62, 6-(1-Isopropyl-1H-pyrazol-3-yl)-5-methyl-2-(1-methyl-1H-imidazol-2-yl)-N-(pyrazin-2-yl)pyrrolo[2,1-f][1,2,4]triazin-4-amine], the inhibition at 10 µM (TNF-alpha) was 1 to 24%, the “% inh of Smad2/3 phosphorylation in Panc-1” value [1] was “A* (A* = 1-25% activation)” and the inhibition (IL6) was 25 to 49%. For the same molecule, the “% inh of Erk1/2 phosphorylation in Panc-1” value (Erk1/2 phosphorylation) was “A (1-25% inhibition)”.

`COc1cc(Nc2nc(-c3nccn3C)nn3cc(-c4ccn(C)n4)c(C)c23)ncn1` [Compound 63, N-(6-Methoxypyrimidin-4-yl)-5-methyl-2-(1-methyl-1H-imidazol-2-yl)-6-(1-methyl-1H-pyrazol-3-yl)pyrrolo[2,1-f][1,2,4]triazin-4-amine] was tested, and the inhibition at 10 µM (TNF-alpha) was 1 to 24%, the “% inh of Smad2/3 phosphorylation in Panc-1” value [1] was “D* (D* = 76-100% activation)” and the inhibition (IL6) was 1 to 24%. The “% inh of Erk1/2 phosphorylation in Panc-1” value (Erk1/2 phosphorylation) was “A (1-25% inhibition)”.

`CCn1ccc(-c2cn3nc(-c4nccn4C)nc(Nc4cc(OC)ncn4)c3c2C)n1` [Compound 64, 6-(1-Ethyl-1H-pyrazol-3-yl)-N-(6-methoxypyrimidin-4-yl)-5-methyl-2-(1-methyl-1H-imidazol-2-yl)pyrrolo[2,1-f][1,2,4]triazin-4-amine] was tested, and the inhibition at 10 µM (TNF-alpha) was 0%, the “% inh of Smad2/3 phosphorylation in Panc-1” value [1] was “A (A = 1-25% inhibition)” and the inhibition (IL6) was 1 to 24%. For the same molecule, the “% inh of Erk1/2 phosphorylation in Panc-1” value (Erk1/2 phosphorylation) was “A (1-25% inhibition)”.

With `COc1cc(Nc2nc(-c3nccn3C)nn3cc(-c4cccc(OC)n4)c(C)c23)ncn1` [Compound 65, 6-(6-Methoxypyridin-2-yl)-N-(6-methoxypyrimidin-4-yl)-5-methyl-2-(1-methyl-1H-imidazol-2-yl)pyrrolo[2,1-f][1,2,4]triazin-4-amine] the inhibition at 10 µM (TNF-alpha) was 1 to 24%, the “% inh of Smad2/3 phosphorylation in Panc-1” value [1] was “A* (A* = 1-25% activation)” and the inhibition (IL6) was 1 to 24%. For the same molecule, the “% inh of Erk1/2 phosphorylation in Panc-1” value (Erk1/2 phosphorylation) was “A (1-25% inhibition)”.

`COc1ccc(-c2cn3nc(-c4nccn4C)nc(Nc4cc(OC)ncn4)c3c2C)cn1` [Compound 66, 6-(6-Methoxypyridin-3-yl)-N-(6-methoxypyrimidin-4-yl)-5-methyl-2-(1-methyl-1H-imidazol-2-yl)pyrrolo[2,1-f][1,2,4]triazin-4-amine] was tested, and the inhibition at 10 µM (TNF-alpha) was 1 to 24%, the “% inh of Smad2/3 phosphorylation in Panc-1” value [1] was “A* (A* = 1-25% activation)” and the inhibition (IL6) was 1 to 24%. For the same molecule, the “% inh of Erk1/2 phosphorylation in Panc-1” value (Erk1/2 phosphorylation) was “C (50-84% inhibition)”.

In the case of `Cc1c(-c2ccn(C(C)C)n2)cn2nc(-c3nccn3C)nc(Nc3nnc(C4CC4)o3)c12` [Compound 67, 5-Cyclopropyl-N-(6-(1-isopropyl-1H-pyrazol-3-yl)-5-methyl-2-(1-methyl-1H-imidazol-2-yl)pyrrolo[2,1-f][1,2,4]triazin-4-yl)-1,3,4-oxadiazol-2-amine], the inhibition at 10 µM (TNF-alpha) was 50 to 74%, the “% inh of Smad2/3 phosphorylation in Panc-1” value [1] was 0 (0 = 0% inhibition) and the inhibition (IL6) was 75 to 100%. The “% inh of Erk1/2 phosphorylation in Panc-1” value (Erk1/2 phosphorylation) was “D (85-100% inhibition)”.

For `Cc1c(-c2ccn(C(C)C)n2)cn2nc(-c3nccn3C)nc(Nc3cc(C4CC4)n[nH]3)c12` [Compound 68, N-(3-Cyclopropyl-1H-pyrazol-5-yl)-6-(1-isopropyl-1H-pyrazol-3-yl)-5-methyl-2-(1-methyl-1H-imidazol-2-yl)pyrrolo[2,1-f][1,2,4]triazin-4-amine], the inhibition at 10 µM (TNF-alpha) was 25 to 49%, the “% inh of Smad2/3 phosphorylation in Panc-1” value [1] was “A* (A* = 1-25% activation)” and the inhibition (IL6) was 1 to 24%. The “% inh of Erk1/2 phosphorylation in Panc-1” value (Erk1/2 phosphorylation) was “D* (85-100% activation)”.

For `Cc1c(-c2ccn(C(C)C)n2)cn2nc(-c3nccn3C)nc(Nc3cc(C4CC4)no3)c12` [Compound 69, 3-Cyclopropyl-N-(6-(1-isopropyl-1H-pyrazol-3-yl)-5-methyl-2-(1-methyl-1H-imidazol-2-yl)pyrrolo[2,1-f][1,2,4]triazin-4-yl)isoxazol-5-amine], the inhibition at 10 µM (TNF-alpha) was 1 to 24%, the “% inh of Smad2/3 phosphorylation in Panc-1” value [1] was “A (A = 1-25% inhibition)” and the inhibition (IL6) was 50 to 74%. The “% inh of Erk1/2 phosphorylation in Panc-1” value (Erk1/2 phosphorylation) was “D* (85-100% activation)”.

For `Cc1c(-c2ccn(C(C)C)n2)cn2nc(-c3nccn3C)nc(Nc3nc(C4CC4)no3)c12` [Compound 70, 3-Cyclopropyl-N-(6-(1-isopropyl-1H-pyrazol-3-yl)-5-methyl-2-(1-methyl-1H-imidazol-2-yl)pyrrolo[2,1-f][1,2,4]triazin-4-yl)-1,2,4-oxadiazol-5-amine], the inhibition at 10 µM (TNF-alpha) was 1 to 24%, the “% inh of Smad2/3 phosphorylation in Panc-1” value [1] was 0 (0 = 0% inhibition) and the inhibition (IL6) was 50 to 74%. The “% inh of Erk1/2 phosphorylation in Panc-1” value (Erk1/2 phosphorylation) was “B* (26-49% activation)”.

For `COc1ccc(Nc2nc(-c3nccn3C)nn3cc(-c4ccn(C(C)C)n4)c(C)c23)cn1` [Compound 71, 6-(1-Isopropyl-1H-pyrazol-3-yl)-N-(6-methoxypyridin-3-yl)-5-methyl-2-(1-methyl-1H-imidazol-2-yl)pyrrolo[2,1-f][1,2,4]triazin-4-amine], the inhibition at 10 µM (TNF-alpha) was 0%, the “% inh of Smad2/3 phosphorylation in Panc-1” value [1] was 0 (0 = 0% inhibition) and the inhibition (IL6) was 0%. For the same molecule, the “% inh of Erk1/2 phosphorylation in Panc-1” value (Erk1/2 phosphorylation) was “D* (85-100% activation)”.

`Cc1c(-c2ccn(C(C)C)n2)cn2nc(-c3nccn3C)nc(Nc3ccn(C(C)C)n3)c12` [Compound 72, N,6-bis(1-Isopropyl-1H-pyrazol-3-yl)-5-methyl-2-(1-methyl-1H-imidazol-2-yl)pyrrolo[2,1-f][1,2,4]triazin-4-amine] was tested, and the inhibition at 10 µM (TNF-alpha) was 1 to 24%, the “% inh of Smad2/3 phosphorylation in Panc-1” value [1] was 0 (0 = 0% inhibition) and the inhibition (IL6) was 50 to 74%. The “% inh of Erk1/2 phosphorylation in Panc-1” value (Erk1/2 phosphorylation) was “D* (85-100% activation)”.

For `COc1cncnc1Nc1nc(-c2nccn2C)nn2cc(-c3ccn(C(C)C)n3)c(C)c12` [Compound 73, 6-(1-Isopropyl-1H-pyrazol-3-yl)-N-(5-methoxypyrimidin-4-yl)-5-methyl-2-(1-methyl-1H-imidazol-2-yl)pyrrolo[2,1-f][1,2,4]triazin-4-amine], the inhibition at 10 µM (TNF-alpha) was 0%, the “% inh of Smad2/3 phosphorylation in Panc-1” value [1] was “B* (B* = 26-45% activation)” and the inhibition (IL6) was 50 to 74%. For the same molecule, the “% inh of Erk1/2 phosphorylation in Panc-1” value (Erk1/2 phosphorylation) was “D* (85-100% activation)”.

`COc1ccc(Nc2nc(-c3nccn3C)nn3cc(-c4ccn(C(C)C)n4)c(C)c23)nn1` [Compound 74, 6-(1-Isopropyl-1H-pyrazol-3-yl)-N-(6-methoxypyridazin-3-yl)-5-methyl-2-(1-methyl-1H-imidazol-2-yl)pyrrolo[2,1-f][1,2,4]triazin-4-amine] was tested, and the inhibition at 10 µM (TNF-alpha) was 1 to 24%, the “% inh of Smad2/3 phosphorylation in Panc-1” value [1] was “A* (A* = 1-25% activation)” and the inhibition (IL6) was 1 to 24%. The “% inh of Erk1/2 phosphorylation in Panc-1” value (Erk1/2 phosphorylation) was “D* (85-100% activation)”.

For `COc1cc(Nc2nc(-c3nccn3C)nn3cc(-c4ccn(C)n4)c(C)c23)ncc1-n1cnc(C)c1` [Compound 244, N-(4-Methoxy-5-(4-methyl-1H-imidazol-1-yl)pyridin-2-yl)-5-methyl-2-(1-methyl-1H-imidazol-2-yl)-6-(1-methyl-1H-pyrazol-3-yl)pyrrolo[2,1-f][1,2,4]triazin-4-amine], the inhibition at 10 µM (TNF-alpha) was 0%, the “% inh of Smad2/3 phosphorylation in Panc-1” value [1] was “A* (A* = 1-25% activation)” and the inhibition (IL6) was 0%. For the same molecule, the “% inh of Erk1/2 phosphorylation in Panc-1” value (Erk1/2 phosphorylation) was 0 (0% inhibition).

Reference: US12459951B2, “Compounds that interact with RAS superfamily proteins for treatment of cancers, inflammatory diseases, rasopathies, and fibrotic disease” (SHY Therapeutics, LLC, priority 2022, dated 2025)
